Assay [1] relates to chiens. Briefly: Coronary balloon angioplasty occlusion (15 min) and reperfusion in anaesthetised dogs, first series. It is filed as in vivo. The method, then:
(§1) 1 - On a réalisé des essais comparatifs chez des chiens auxquels on a administré par voie intraveineuse en 15 minutes : • soit du buflomédil (chlorhydrate) à la dose de 10 mg/kg; • soit un placebo.
Le protocole opératoire était le suivant :
(§2) les chiens ont reçu une prémédication consistant en 1,0 mg par kg de sulfate de morphine après une nuit de diète ainsi que 325 mg d'aspirine par voie orale.
(§3) Les chiens ont été anesthésiés avec 12,5 mg/kg de thiopental et 72 mg/kg de chloralose par voie intraveineuse. On met en place un cathéter au niveau de l'artère fémorale pour la mesure de la pression artérielle et une canule sur la veine fémorale pour l'administration du produit à tester. L'artère carotide gauche reçoit une canule pour la mise en place du cathéter d'angioplastie, tandis que l'on met en place un cathéter au niveau du ventricule gauche via l'artère fémorale contralatérale.
Les animaux sont alors héparinisés avec 500 unités U.I. par kg par voie I.V. On procède alors à l'administration du produit à tester ou du placebo à raison, pour le buflomédil, de 10 mg par mn. On administre ensuite de la lidocaïne par voie I.V. à raison de 1 mg/kg sous forme de bolus, puis par perfusion à raison de 1 mg par mn. […]

Assay [2] has as its system chiens. Briefly: Coronary balloon occlusion (15 min) with follow-up of reperfusion in dogs, second series. The conditions noted are these: 10 mg/kg i.v. It is filed as in vivo. The method, then:
as §1, §2, §3
Les animaux sont alors héparinisés avec 500 unités U.I. par kg par voie I.V. On procède alors à l'administration du produit à tester ou du placebo à raison, pour le buflomédil, de 10 mg par mn. On administre ensuite de la lidocaïne par voie I.V. à raison de 1 mg/kg sous forme de bolus, puis par perfusion à raison de 1 mg par mn.
30 mn après la fin de la perfusion, on met en place un ballonnet d'angioplastie de 2,5-3,5 mm choisi en fonction de la taille des artères coronaires dans l'artère coronaire descendante antérieure gauche. Le ballon a été gonflé à une pression de 4.10⁵ Pa pendant 15 mn.
2 - Dans une deuxième série d'essais comparatifs, on a utilisé le même mode opératoire et les mêmes produits (buflomédil chlorhydrate à la dose de 10 mg/kg d'une part et placebo d'autre part) et on a suivi la reperfusion après 15 minutes d'occlusion avec un ballonnet.

Where [3] appears, read: at the end of the occlusion, versus placebo.

For `COc1cc(OC)c(C(=O)CCCN2CCCC2)c(OC)c1` [buflomédil, 4-(1-pyrrolidinyl)-1-(2,4,6-triméthoxyphényl)-1-butanone], the “flux sanguins tissulaires au niveau du myocarde” value in the assay with chiens [1] (10 mg/kg i.v., measured during ischaemia in the ischaemic regions, versus placebo (Figure)) is given as “plus élevés”. Moreover, the “fibrillation ventriculaire lors de la reperfusion” value in the assay on chiens [1] (buflomédil (chlorhydrate) 10 mg/kg i.v. over 15 min, 15 min balloon occlusion, placebo: 4 cas sur 10) is “n'a pas observé de fibrillation ventriculaire”. For the same compound, the “fraction d'éjection” value is recorded as 89 % de la valeur normale du groupe in the assay on chiens [2] (30 minutes after reperfusion, placebo 69 %); 95% in the assay on chiens [2] (60 minutes after reperfusion, placebo 74 %); “n'a pas observé à la fin de l'occlusion de différence” in the assay with chiens [2] (setting [3]). Further, in the assay with chiens [2] (after reperfusion, versus placebo), the zone de dysfonctionnement result was “diminution”. Moreover, in the assay with chiens [2] (setting [3]), the perfusion sanguine transmurale entry was “n'a pas observé à la fin de l'occlusion de différence”. Besides, in the assay on chiens [2] (during reperfusion, versus placebo), the “flux pendant la reperfusion” value is “flux accru”.

Values taken from patent EP0487382A1, “Use of buflomedil for the protection of the myocardium by coronary angioplasty” (LABORATOIRE L. LAFON, priority 1990, dated 1992).
